Patent publication US6054435A, “6-O-substituted macrolides having antibacterial activity” (priority 1999, dated 2000)
≈ marks a conversion by molar mass, not a printed value.

How the values were obtained:
Experiment in all cases: in vitro antibacterial activity (MIC), agar dilution
Type in all cases: cell-based
[1] = tested on: Mycobacterium smegmatis ATCC 114; settings: organism code UU; BHI agar, 35-37° C., 20 to 24 hours; unit assumed
In short: (§1)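 Endpoint: lowest concentration with no growth, slight haze or sparsely isolated colonies at the inoculum spot, judged against a compound-free BHI control. Strains were replicator-inoculated at 1:100 (1:10 for Streptococcus and other slow growers).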

[2] = tested on: Staphylococcus epidermidis 3519; settings: organism code HH; BHI agar, 35-37° C., 20 to 24 hours; unit assumed
In short: as §1

[3] = tested on: Staphylococcus aureus 1775; settings: organism code GG; BHI agar, 35-37° C., 20 to 24 hours; unit assumed
In short: as §1

[4] = tested on: Streptococcus pyogenes PIU 2548; settings: organism code NN; BHI agar, 35-37° C., 20 to 24 hours; unit assumed
In short: as §1

Candida albicans CCH 442 = settings: organism code TT; BHI agar, 35-37° C., 20 to 24 hours; unit assumed
In short: as §1

Escherichia coli SS = settings: organism code RR; BHI agar, 35-37° C., 20 to 24 hours; unit assumed
In short: as §1

[5] = tested on: Nocardia Asteroides ATCC9970; settings: organism code VV; BHI agar, 35-37° C., 20 to 24 hours; unit assumed
In short: as §1

[6] = tested on: Staphylococcus aureus CMX 553; settings: organism code FF; BHI agar, 35-37° C., 20 to 24 hours; unit assumed
In short: as §1

[7] = tested on: Streptococcus Pneumonia 5979; settings: organism code ZZ; BHI agar, 35-37° C., 20 to 24 hours; unit assumed
In short: as §1

[8] = tested on: Streptococcus agalactiae CMX 508; settings: organism code KK; BHI agar, 35-37° C., 20 to 24 hours; unit assumed
In short: as §1

[9] = tested on: Streptococcus bovis A-5169; settings: organism code JJ; BHI agar, 35-37° C., 20 to 24 hours; unit assumed
In short: as §1

[10] = tested on: Staphylococcus aureus A-5278; settings: organism code CC; BHI agar, 35-37° C., 20 to 24 hours; unit assumed
In short: as §1

[11] = tested on: Streptococcus pyogenes 930; settings: organism code MM; BHI agar, 35-37° C., 20 to 24 hours; unit assumed
In short: as §1

[12] = tested on: Streptococcus Pneumonia GYR 1171; settings: organism code YY; BHI agar, 35-37° C., 20 to 24 hours; unit assumed
In short: as §1

[13] = tested on: Micrococcus luteus ATCC 4698; settings: organism code PP; BHI agar, 35-37° C., 20 to 24 hours; unit assumed
In short: (§2)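 Agar dilution on BHI agar with twelve successive compound dilutions; plates inoculated by Steers replicator with 1:100 culture dilutions (1:10 for slow growers such as Streptococcus). MIC is the lowest concentration giving no growth, slight haze or sparse colonies versus a drug-free control.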

[14] = tested on: Haemophilis Influenzae DILL AMP R; settings: organism code WW; BHI agar, 35-37° C., 20 to 24 hours; unit assumed
In short: as §1

Escherichia coli DC-2 = settings: organism code SS; BHI agar, 35-37° C., 20 to 24 hours; unit assumed
In short: as §1

[15] = tested on: Enterococcus faecium ATCC 8043; settings: organism code II; BHI agar, 35-37° C., 20 to 24 hours; unit assumed
In short: as §1

[16] = tested on: Staphylococcus aureus A5177; settings: organism code BB; BHI agar, 35-37° C., 20 to 24 hours; unit assumed
In short: as §1

[17] = tested on: Staphylococcus aureus NCTC10649M; settings: organism code EE; BHI agar, 35-37° C., 20 to 24 hours; unit assumed
In short: as §1

[18] = tested on: Staphylococcus aureus ATCC 6538P; settings: organism code AA; BHI agar, 35-37° C., 20 to 24 hours; unit assumed
In short: as §1

Escherichia coli JUHL = settings: organism code QQ; BHI agar, 35-37° C., 20 to 24 hours; unit assumed
In short: as §1

[19] = tested on: Streptococcus Pneumonia 5649; settings: organism code ZZA; BHI agar, 35-37° C., 20 to 24 hours; unit assumed
In short: as §1

[20] = tested on: Micrococcus luteus ATCC 9341; settings: organism code OO; BHI agar, 35-37° C., 20 to 24 hours; unit assumed
In short: as §2

[21] = tested on: Streptococcus pyogenes EES61; settings: organism code LL; BHI agar, 35-37° C., 20 to 24 hours; unit assumed
In short: as §1

[22] = tested on: Streptococcus Pneumonia ATCC6303; settings: organism code XX; BHI agar, 35-37° C., 20 to 24 hours; unit assumed
In short: as §1

[23] = tested on: Staphylococcus aureus CMX 642A; settings: organism code DD; BHI agar, 35-37° C., 20 to 24 hours; unit assumed
In short: as §1

SMILES | MIC [1] [µg/mL] | MIC [2] [µg/mL] | MIC [3] [µg/mL] | MIC [4] [µg/mL] | MIC (Candida albicans CCH 442) [µg/mL] | MIC (Escherichia coli SS) [µg/mL] | MIC [5] [µg/mL] | MIC [6] [µg/mL] | MIC [7] [µg/mL] | MIC [8] [µg/mL] | MIC [9] [µg/mL] | MIC [10] [µg/mL] | MIC [11] [µg/mL] | MIC [12] [µg/mL] | MIC [13] [µg/mL] | MIC [14] [µg/mL] | MIC (Escherichia coli DC-2) [µg/mL] | MIC [15] [µg/mL] | MIC [16] [µg/mL] | MIC [17] [µg/mL] | further results
CC[C@H]1OC(=O)[C@H](C)C(=O)[C@H](C)[C@@H](O[C@@H]2O[C@H](C)C[C@H](N(C)C)[C@H]2O)[C@](C)(OCC#Cc2ccc(-c3cccc(C(F)(F)F)c3)s2)C[C@@H](C)C(=O)[C@H](C)[C@H]2NC(=O)O[C@@]21C [Example 19] | 0.39 (≈ 0.452 µM) | 0.39 (≈ 0.452 µM) | 12.5 (≈ 14.5 µM) | 0.39 (≈ 0.452 µM) | > 100 | 3.1 (≈ 3.59 µM) | 0.39 (≈ 0.452 µM) | 0.39 (≈ 0.452 µM) | 4 (≈ 4.63 µM) | 0.05 (≈ 0.0579 µM) | 0.05 (≈ 0.0579 µM) | 25 (≈ 29 µM) | 3.1 (≈ 3.59 µM) | 0.125 (≈ 0.145 µM) | 0.39 (≈ 0.452 µM) | 4 (≈ 4.63 µM) | > 100 | 0.39 (≈ 0.452 µM) | 0.39 (≈ 0.452 µM) | 0.39 (≈ 0.452 µM) | MIC [18]: 0.39 µg/mL (≈ 0.452 µM); MIC (Escherichia coli JUHL): > 100 µg/mL; MIC [19]: 1 µg/mL (≈ 1.16 µM); MIC [20]: 0.2 µg/mL (≈ 0.232 µM); MIC [21]: 0.1 µg/mL (≈ 0.116 µM); MIC [22]: 0.125 µg/mL (≈ 0.145 µM); MIC [23]: 0.39 µg/mL (≈ 0.452 µM)
CC[C@H]1OC(=O)[C@H](C)C(=O)[C@H](C)[C@@H](O[C@@H]2O[C@H](C)C[C@H](N(C)C)[C@H]2O)[C@](C)(OCC#Cc2ccc(-c3ccc(Cl)s3)s2)C[C@@H](C)C(=O)[C@H](C)[C@H]2NC(=O)O[C@@]21C [Example 26] | 0.39 (≈ 0.467 µM) | 0.2 (≈ 0.239 µM) | 12.5 (≈ 15 µM) | 0.2 (≈ 0.239 µM) | > 100 | 1.56 (≈ 1.87 µM) | 0.1 (≈ 0.12 µM) | 0.2 (≈ 0.239 µM) | 0.5 (≈ 0.598 µM) | ≤ 0.005 | 0.05 (≈ 0.0598 µM) | 12.5 (≈ 15 µM) | 3.1 (≈ 3.71 µM) | 0.03 (≈ 0.0359 µM) | 0.2 (≈ 0.239 µM) | 4 (≈ 4.79 µM) | > 100 | 0.1 (≈ 0.12 µM) | 0.2 (≈ 0.239 µM) | 0.2 (≈ 0.239 µM) | MIC [18]: 0.2 µg/mL (≈ 0.239 µM); MIC (Escherichia coli JUHL): > 100 µg/mL; MIC [19]: 0.25 µg/mL (≈ 0.299 µM); MIC [20]: 0.05 µg/mL (≈ 0.0598 µM); MIC [21]: 0.02 µg/mL (≈ 0.0239 µM); MIC [22]: 0.03 µg/mL (≈ 0.0359 µM); MIC [23]: 0.2 µg/mL (≈ 0.239 µM)
CC[C@H]1OC(=O)[C@H](C)C(=O)[C@H](C)[C@@H](O[C@@H]2O[C@H](C)C[C@H](N(C)C)[C@H]2O)[C@](C)(OC/C=C/c2cnc(-c3cccnc3)s2)C[C@@H](C)C(=O)[C@H](C)[C@H]2NC(=O)O[C@@]21C [Example 55] | 0.39 (≈ 0.488 µM) | 0.1 (≈ 0.125 µM) | > 100 | 0.2 (≈ 0.25 µM) | > 100 | 0.39 (≈ 0.488 µM) | 0.02 (≈ 0.025 µM) | 0.05 (≈ 0.0626 µM) | 2 (≈ 2.5 µM) | 0.05 (≈ 0.0626 µM) | ≤ 0.005 | > 100 | 25 (≈ 31.3 µM) | 0.03 (≈ 0.0375 µM) | 0.2 (≈ 0.25 µM) | 4 (≈ 5.01 µM) | 50 (≈ 62.6 µM) | 0.05 (≈ 0.0626 µM) | 0.05 (≈ 0.0626 µM) | 0.1 (≈ 0.125 µM) | MIC [18]: 0.1 µg/mL (≈ 0.125 µM); MIC (Escherichia coli JUHL): 50 µg/mL (≈ 62.6 µM); MIC [19]: 0.25 µg/mL (≈ 0.313 µM); MIC [20]: 0.02 µg/mL (≈ 0.025 µM); MIC [21]: 0.05 µg/mL (≈ 0.0626 µM); MIC [22]: 0.03 µg/mL (≈ 0.0375 µM); MIC [23]: 0.05 µg/mL (≈ 0.0626 µM)
CC[C@H]1OC(=O)[C@H](C)C(=O)[C@H](C)[C@@H](O[C@@H]2O[C@H](C)C[C@H](N(C)C)[C@H]2O)[C@](C)(OCC#Cc2ccc(-c3ccccc3)s2)C[C@@H](C)C(=O)[C@H](C)[C@H]2NC(=O)O[C@@]21C [Example 13] | 1.56 (≈ 1.96 µM) | 0.78 (≈ 0.981 µM) | > 100 | 0.39 (≈ 0.491 µM) | > 100 | 3.1 (≈ 3.9 µM) | 0.78 (≈ 0.981 µM) | 0.39 (≈ 0.491 µM) | 4 (≈ 5.03 µM) | 0.1 (≈ 0.126 µM) | 0.05 (≈ 0.0629 µM) | > 100 | 100 (≈ 126 µM) | 0.25 (≈ 0.314 µM) | 0.2 (≈ 0.252 µM) | 32 (≈ 40.3 µM) | > 100 | 0.05 (≈ 0.0629 µM) | 0.39 (≈ 0.491 µM) | 0.78 (≈ 0.981 µM) | MIC [18]: 0.39 µg/mL (≈ 0.491 µM); MIC (Escherichia coli JUHL): > 100 µg/mL; MIC [19]: 2 µg/mL (≈ 2.52 µM); MIC [20]: 0.05 µg/mL (≈ 0.0629 µM); MIC [21]: 0.02 µg/mL (≈ 0.0252 µM); MIC [22]: 0.25 µg/mL (≈ 0.314 µM); MIC [23]: 0.39 µg/mL (≈ 0.491 µM)
